PubChem BioAssay AID1963427 (Molecular Pharmacology Branch, DTP, NCI, 2024)

Test system: 317291-083-R-J1-PDC complex spheroid growth
Test: Anticancer human tumor 317291-083-R-J1-PDC patient-derived soft tissue sarcoma cell line growth inhibition [Asc]
Conditions: for IC50: curve of first compound; for viability, T/C: stronger effect = lower value
Summary of the method: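 Complex spheroids combining tumor cells with HUVEC endothelial cells and human MSCs, at 37 degrees C, 5% CO2; agents tested alone or combined, half-log dilutions from at or near clinical Cmax, or 10 microM if Cmax unknown.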
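Note: compound exposure lasted seven days after spheroids formed for three days.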
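Throughout, for viability, T/C: 100% = DMSO vehicle control wells.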

IC50 (second compound 0.00949 µM): 34.2 nM | IC50 (second compound 0.03 µM): 21.5 nM | IC50 (second compound 0.0949 µM): 23.8 nM | IC50 (second compound 0.3 µM): 24.3 nM | IC50 (second compound 0.949 µM): 23.6 nM | IC50 (second compound 3 µM): 18.2 nM
Compound: NC(=O)C(=Cn1cnc(-c2cc(C(F)(F)F)cc(C(F)(F)F)c2)n1)c1cncnc1 + CCN1C(C(=O)NC23CCC(C(=O)O)(CC2)CC3)C(c2cccc(Cl)c2F)C2(C(=O)Nc3cc(Cl)ccc32)C12CCCCC2
viability, T/C (second compound 0.00949 µM, first compound 0.000949 µM): 97.9% | viability, T/C (second compound 0.00949 µM, first compound 0.003 µM): 83.4% | viability, T/C (second compound 0.00949 µM, first compound 0.00949 µM): 79.2% | viability, T/C (second compound 0.00949 µM, first compound 0.03 µM): 57.7% | viability, T/C (second compound 0.00949 µM, first compound 0.0949 µM): 10% | viability, T/C (second compound 0.00949 µM, first compound 0.3 µM): 2.56% | viability, T/C (second compound 0.03 µM, first compound 0.000949 µM): 118% | viability, T/C (second compound 0.03 µM, first compound 0.003 µM): 87.6% | viability, T/C (second compound 0.03 µM, first compound 0.00949 µM): 84.8% | viability, T/C (second compound 0.03 µM, first compound 0.03 µM): 38.2% | viability, T/C (second compound 0.03 µM, first compound 0.0949 µM): 5.81% | viability, T/C (second compound 0.03 µM, first compound 0.3 µM): 2.23% | viability, T/C (second compound 0.0949 µM, first compound 0.000949 µM): 94.6% | viability, T/C (second compound 0.0949 µM, first compound 0.003 µM): 109% | viability, T/C (second compound 0.0949 µM, first compound 0.00949 µM): 72.4% | viability, T/C (second compound 0.0949 µM, first compound 0.03 µM): 46.4% | viability, T/C (second compound 0.0949 µM, first compound 0.0949 µM): 10.3% | viability, T/C (second compound 0.0949 µM, first compound 0.3 µM): 2.94% | viability, T/C (second compound 0.3 µM, first compound 0.000949 µM): 95.1% | viability, T/C (second compound 0.3 µM, first compound 0.003 µM): 106% | viability, T/C (second compound 0.3 µM, first compound 0.00949 µM): 74.6% | viability, T/C (second compound 0.3 µM, first compound 0.03 µM): 47.4% | viability, T/C (second compound 0.3 µM, first compound 0.0949 µM): 7.13% | viability, T/C (second compound 0.3 µM, first compound 0.3 µM): 2.81% | viability, T/C (second compound 0.949 µM, first compound 0.000949 µM): 110% | viability, T/C (second compound 0.949 µM, first compound 0.003 µM): 90.3% | viability, T/C (second compound 0.949 µM, first compound 0.00949 µM): 69.6% | viability, T/C (second compound 0.949 µM, first compound 0.03 µM): 55.6% | viability, T/C (second compound 0.949 µM, first compound 0.0949 µM): 4.34% | viability, T/C (second compound 0.949 µM, first compound 0.3 µM): 2.96% | viability, T/C (second compound 3 µM, first compound 0.000949 µM): 100% | viability, T/C (second compound 3 µM, first compound 0.003 µM): 87.2% | viability, T/C (second compound 3 µM, first compound 0.00949 µM): 76.8% | viability, T/C (second compound 3 µM, first compound 0.03 µM): 27.7% | viability, T/C (second compound 3 µM, first compound 0.0949 µM): 21.7% | viability, T/C (second compound 3 µM, first compound 0.3 µM): 2.15%
